# Test system: Candida albicans strain #40 fimbriae (enriched fimbriae EF, 66 kDa fimbrial subunit/adhesin protein)
# Assay: Inhibition of fimbriae binding to immobilized βGalNAc(1-4)βGal-BSA conjugate
# Settings: plates coated with 10 μg/ml conjugate
# Method: Further experiments to determine the specificity of fimbrial binding to GSLs were carried out using a plate binding assay, as described above, but immobilizing on the plates a βGalNAc(1-4)βGal-BSA conjugate, synthesized from βGalNAc(1-4)βGal-O(CH2)8 COOCH3 (Sabesan and Lemieux), as described in Part B, above. The coupling ratio of disaccharide: BSA was 12:1. The protocol utilized for this assay was similar to that employed for the assessment of C. albicans fimbriae binding to GSLs except that the plates were coated with 100 μl/well of a 10 μg/ml solution of synthetic βGalNAc(1-4)βGal-BSA conjugate in 0.01M carbonate buffer, pH 9.5.
# Using this assay, it was first determined that fimbriae bind to the βGalNAc(1-4)βGal-BSA conjugate in a saturable, concentration-dependent manner. FIGS. 12A and 12B show the results of experiments in which compounds were tested for ability to inhibit binding of fimbriae to the βGalNAc(1-4)βGal-BSA conjugate. The protocol used in this assay was similar to the one used in the GSL inhibition assay described above, except that the plates were coated with 100 μl/well of a 10 μg/ml solution of synthetic βGalNAc(1-4)βGal-BSA conjugate in 0.01M carbonate buffer, pH 9.5. As depicted in FIG. 12A, βGalNAc(1-4)βGal-methylester ("GalNAcGal") was able to inhibit binding to the GalNAcGal-BSA conjugate in a concentration dependent manner. […]
substance,measurement,value
gangliotetraosylceramide: βGal(1-3)βGalNAc(1-4)βGal(1-4)βGlc(1-1)Cer [asialo-GM1],Concentration required for half-maximal inhibition of fimbriae binding to βGalNAc(1-4)βGal-BSA conjugate,7.5 µg/mL

# Source: patent publication US5641760A, “Method of treating candida infection” (Pence, Inc., priority 1994, dated 1997)
